Assay results taken from patent US20120129842A1, “BISTHIAZOLE INHIBITORS OF PRO-MATRIX METALLOPROTEINASE ACTIVATION” (priority 2010, published 2012).
Structures can show the parent of a compound that is named as a salt.

What was measured:
[1] = target: T1, proMMP9(67-444;ΔFnII) (SEQ ID NO:5) (Homo sapiens, UniProt P14780, DEL216-390); experiment: ThermoFluor binding assay with proMMP9(67-444;ΔFnII); conditions: pH 7.0
T1 construct: start methionine (N); made in house; host or cells: E. coli BL21(DE3) RIL
T1 sequence (P14780 with tags, fused parts or gaps DEL216-390): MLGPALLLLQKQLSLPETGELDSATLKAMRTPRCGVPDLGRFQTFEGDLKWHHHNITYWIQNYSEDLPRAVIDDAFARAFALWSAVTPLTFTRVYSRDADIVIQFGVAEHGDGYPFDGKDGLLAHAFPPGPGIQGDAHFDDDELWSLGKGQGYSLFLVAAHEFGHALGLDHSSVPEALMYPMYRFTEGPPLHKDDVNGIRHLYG
In short: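 Thermal shift binding with 3.5 μM proMMP9(67-444;ΔFnII) and 50 μM 1,8-ANS in 50 mM HEPES pH 7.0, 100 mM NaCl, 2.5 mM MgCl2, 300 μM CaCl2, 0.001% Tween-20, with serially diluted compound. Heated 40 to 90° C at 1° C/min; fluorescence-derived Tm fitted using DSC/ThermoFluor thermodynamic parameters.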

[2] = target: T2, full-length proMMP9(1-707) (SEQ ID NO:1) (Homo sapiens, UniProt P14780, R574P); experiment: proMMP9/MMP3 P126 Activation Assay; type: biochemical; conditions: 20 nM proMMP9, 20 nM MMP3, 80 min 37° C.
T2 construct: made in house; host or cells: HEK293 (proMMP9, secreted); E. coli (MMP3)
T2 sequence (P14780 20-707 R574P): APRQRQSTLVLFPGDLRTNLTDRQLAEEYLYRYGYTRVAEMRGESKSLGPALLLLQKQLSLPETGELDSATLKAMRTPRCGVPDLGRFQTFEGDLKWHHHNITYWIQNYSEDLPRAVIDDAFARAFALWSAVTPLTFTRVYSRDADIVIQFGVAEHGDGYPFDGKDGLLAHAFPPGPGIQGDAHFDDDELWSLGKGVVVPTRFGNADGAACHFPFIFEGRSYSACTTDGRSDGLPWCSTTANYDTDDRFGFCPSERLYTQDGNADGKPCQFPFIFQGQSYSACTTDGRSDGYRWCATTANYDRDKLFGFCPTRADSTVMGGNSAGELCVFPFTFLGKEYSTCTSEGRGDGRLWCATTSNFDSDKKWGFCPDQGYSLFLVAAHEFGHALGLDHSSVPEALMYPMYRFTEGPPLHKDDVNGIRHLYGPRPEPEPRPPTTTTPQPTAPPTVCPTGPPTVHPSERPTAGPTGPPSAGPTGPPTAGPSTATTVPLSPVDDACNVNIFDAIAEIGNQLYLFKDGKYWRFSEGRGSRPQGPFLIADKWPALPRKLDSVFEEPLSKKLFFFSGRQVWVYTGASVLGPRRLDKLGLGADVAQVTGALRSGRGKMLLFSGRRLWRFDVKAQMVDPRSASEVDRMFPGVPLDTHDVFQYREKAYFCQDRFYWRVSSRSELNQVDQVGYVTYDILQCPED
Description: The reaction volume was 50 μL. […] Reactivity of residual MMP3 towards P-126 substrate was minimal under these conditions.

[3] = target: proMMP13(1-268) (SEQ ID NO:7) (Homo sapiens, UniProt P45452); experiment: ThermoFluor binding assay with proMMP13(1-268); parameters: 6xHis (C); made in house; conditions: pH 7.0
In short: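 Thermal shift binding with 3.5 μM protein and 25 μM 1,8-ANS in 50 mM HEPES pH 7.0, 100 mM NaCl, 0.001% Tween-20, 2.5 mM MgCl2, 300 μM CaCl2. Samples were heated 40 to 90 °C at 1 °C/min, fluorescence read at 500 nm. Tm shifts across an 11-point DMSO dilution series were fitted with DSC-derived thermodynamic parameters.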

[4] = target: T3, proMMP9(20-445;ΔFnII) (SEQ ID NO:6) (Homo sapiens, UniProt P14780, DEL216-390); experiment: ThermoFluor binding assay with proMMP9(20-445;ΔFnII); conditions: pH 7.0
T3 construct: start methionine (N); made in house; host or cells: E. coli BL21(DE3) RIL
T3 sequence (P14780 with tags, fused parts or gaps DEL216-390): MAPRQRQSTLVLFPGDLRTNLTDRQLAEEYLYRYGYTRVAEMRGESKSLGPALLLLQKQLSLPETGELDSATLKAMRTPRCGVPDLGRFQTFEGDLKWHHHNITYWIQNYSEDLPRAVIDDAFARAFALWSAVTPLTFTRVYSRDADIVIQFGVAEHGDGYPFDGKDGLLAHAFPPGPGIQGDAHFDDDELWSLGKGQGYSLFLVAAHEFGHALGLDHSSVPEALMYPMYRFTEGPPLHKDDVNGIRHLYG
In short: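 proMMP9(20-445;ΔFnII) at 2.8 μM with 50 μM 1,8-ANS in 50 mM HEPES pH 7.0, 100 mM NaCl, 0.001% Tween-20, 2.5 mM MgCl2, 300 μM CaCl2; compounds serially diluted in DMSO. Heated 40–90 °C at 1 °C/min, fluorescence read at 500±25 nm. Tm fit by standard equations; binding fit using DSC/TF-derived thermodynamic parameters.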

| SMILES | Kd [1] [nM] | IC50 [2] [nM] | Kd [3] [nM] | Kd [4] [nM] |
| --- | --- | --- | --- | --- |
| CC(=O)Nc1nc(C)c(-c2csc(Nc3cc(S(N)(=O)=O)ccc3OC(C)C)n2)s1 [Example 63, N-[2-(2-Isopropoxy-5-sulfamoyl-phenylamino)-4′-methyl-[4,5′]bithiazolyl-2′-yl]-acetamide.TFA] | 790 | 750 | 1300 | 520 |
| Cc1nc(CN(C)C)sc1-c1csc(Nc2cc(C(N)=O)ccc2OC(C)C)n1 [Example 129, 3-(2′-Dimethylaminomethyl-4′-methyl-[4,5′]bithiazolyl-2-ylamino)-4-isopropoxy-benzamide.TFA] | 4700 | 1200 | 5100 | 720 |
| CCN1CCN(C(=O)c2nc(C)c(-c3csc(Nc4cc(C(N)=O)ccc4OC(C)C)n3)s2)CC1 [Example 102, 3-[2′-(4-Ethyl-piperazine-1-carbonyl)-4′-methyl-[4,5′]bithiazolyl-2-ylamino]-4-isopropoxy-benzamide.TFA] | 730 | 130 | 660 | 700 |
| Cc1nc(C(=O)N2CCCN(C)CC2)sc1-c1csc(Nc2cc(C(N)=O)ccc2OC(C)C)n1 [Example 104, 4-Isopropoxy-3-[4′-methyl-2′-(4-methyl-[1,4]diazepane-1-carbonyl)-[4,5′]bithiazolyl-2-ylamino]-benzamide.TFA] | 610 | 130 | 530 | 460 |
| Cc1nc(N)sc1-c1csc(Nc2cc(S(N)(=O)=O)ccc2OC(C)C)n1 [Example 60, 3-(2′-Amino-4′-methyl-[4,5′]bithiazolyl-2-ylamino)-4-isopropoxy-benzenesulfonamide.TFA] | 110 | 350 | 70 | 58 |
| Cc1nc(N2CCN(C)CC2)sc1-c1csc(Nc2cc(S(N)(=O)=O)ccc2OC(C)C)n1 [Example 61, 4-Isopropoxy-3-[4′-methyl-2′-(4-methyl-piperazin-1-yl)-[4,5′]bithiazolyl-2-ylamino]-benzenesulfonamide.TFA] | 140 | 380 | 110 | 69 |
| COc1ccc(C(N)=O)cc1Nc1nc(-c2sc(C)nc2C)cs1 [Example 18, 3-(2′,4′-Dimethyl-[4,5′]bithiazolyl-2-ylamino)-4-methoxy-benzamide.HBr] | 840 | 690 | 14000 | 340 |
| Cc1nc(CN2CCCC2)sc1-c1csc(Nc2cc(C(N)=O)ccc2OC(C)C)n1 [Example 130, 4-Isopropoxy-3-(4′-methyl-2′-pyrrolidin-1-ylmethyl-[4,5′]bithiazolyl-2-ylamino)-benzamide.TFA] | 3000 | 700 | 4900 | 550 |
| CCOc1ccc(C(N)=O)cc1Nc1nc(-c2sc(C(=O)N3CCCN(C)CC3)nc2C)cs1 [Example 119, 4-Ethoxy-3-[4′-methyl-2′-(4-methyl-[1,4]diazepane-1-carbonyl)-[4,5′]bithiazolyl-2-ylamino]-benzamide.TFA] | 2200 | 520 | 6200 | 3300 |
| Cc1nc(S(C)(=O)=O)sc1-c1csc(Nc2cc(C(N)=O)ccc2OC(C)C)n1 [Example 132, 4-Isopropoxy-3-(2′-methanesulfonyl-4′-methyl-[4,5′]bithiazolyl-2-ylamino)-benzamide] | 21000 | 720 | 11000 | 4300 |
| Cc1nc(C)c(-c2csc(Nc3cc(C(N)=O)ccc3OC(C)C)n2)s1 [Example 1, 3-(2′,4′-Dimethyl-[4,5′]bithiazolyl-2-ylamino)-4-isopropoxy-benzamide.HBr] | 170 | 160 | 140 | 26 |
| COc1ccc(C(=O)NCc2ccccc2)cc1Nc1nc(-c2sc(NC(C)=O)nc2C)cs1 [Example 59, 3-(2′-Acetylamino-4′-methyl-[4,5′]bithiazolyl-2-ylamino)-N-benzyl-4-methoxy-benzamide.TFA] | 2700 | 7500 | 20000 | 2000 |
| Cc1nc(C(=O)N2CCN(C3CCCCC3)CC2)sc1-c1csc(Nc2cc(C(N)=O)ccc2OC(C)C)n1 [Example 108, 3-[2′-(4-Cyclohexyl-piperazine-1-carbonyl)-4′-methyl-[4,5′]bithiazolyl-2-ylamino]-4-isopropoxy-benzamide.TFA] | > 95000 | 1700 | 320 | 310 |
| COc1ccc(S(N)(=O)=O)cc1Nc1nc(-c2sc(C)nc2C)cs1 [Example 54, 3-(2′,4′-Dimethyl-[4,5′]bithiazolyl-2-ylamino)-4-methoxy-benzenesulfonamide.TFA] | 1600 | 3400 | 2000 | 1000 |
| Cc1nc(C(=O)N2CCN(C(C)C)CC2)sc1-c1csc(Nc2cc(C(N)=O)ccc2OC(C)C)n1 [Example 103, 4-Isopropoxy-3-[2′-(4-isopropyl-piperazine-1-carbonyl)-4′-methyl-[4,5]bithiazolyl-2-ylamino]-benzamide.TFA] | 1000 | 97 | 450 | 480 |
| Cc1nc(C)c(-c2csc(Nc3cc(C(N)=O)ccc3OC3CCCC3)n2)s1 [Example 15, 4-Cyclopentyloxy-3-(2′,4′-dimethyl-[4,5′]bithiazolyl-2-ylamino)-benzamide] | > 95000 | > 20000 | 13000 | 7900 |
| CCOc1ccc(C(N)=O)cc1Nc1nc(-c2sc(C(=O)N3CCN(C(C)C)CC3)nc2C)cs1 [Example 118, 4-Ethoxy-3-[2′-(4-isopropyl-piperazine-1-carbonyl)-4′-methyl-[4,5]bithiazolyl-2-ylamino]-benzamide.TFA] | 1200 | 1100 | 5500 | 640 |
| Cc1nc(-c2ccncc2)sc1-c1csc(Nc2cc(C(N)=O)ccc2OC(C)C)n1 [Example 98, 4-Isopropoxy-3-(4′-methyl-2′-pyridin-4-yl-[4,5′]bithiazolyl-2-ylamino)-benzamide.TFA] | 670 | 620 | 2300 | > 95000 |
| Cc1nc(C(=O)NC2CCN(C(C)C)CC2)sc1-c1csc(Nc2cc(C(N)=O)ccc2OC(C)C)n1 [Example 111, 2-(5-Carbamoyl-2-isopropoxy-phenylamino)-4′-methyl-[4,5′]bithiazolyl-2′-carboxylic acid (1-isopropyl-piperidin-4-yl)-amide.TFA] | 290 | 81 | 360 | 86 |
| Cc1nc(C(=O)N2CCCN(C(C)C)CC2)sc1-c1csc(Nc2cc(C(N)=O)ccc2OC(C)C)n1 [Example 112, 4-Isopropoxy-3-[2′-(4-isopropyl-[1,4]diazepane-1-carbonyl)-4′-methyl-[4,5]bithiazolyl-2-ylamino]-benzamide.TFA] | 2200 | 520 | > 57000 | 1400 |
| CC(=O)Nc1nc(C)c(-c2csc(Nc3cc(S(C)(=O)=O)ccc3OC(C)C)n2)s1 [Example 43, N-[2-(2-Isopropoxy-5-methanesulfonyl-phenylamino)-4′-methyl-[4,5]bithiazolyl-2′-yl]-acetamide.TFA] | 580 | 760 | 840 | 590 |
